Experimental data reported in patent US11696913B2, “Prolonged ectoparasite-controlling agent for animal” (MITSUI CHEMICALS AGRO, INC., priority 2017, dated 2023).

What was measured:
Amblyomma americanum = assay: In vitro contact test with hard ticks (Amblyomma americanum nymphs); conditions: read-out: acaricidal activity; for pest or weed control at 0.2 µg/cm2, 0.2 µg/cm2: dose 0.2 μg/cm^2, 48 h; for pest or weed control at 1 µg/cm2, 1 µg/cm2: dose 1 μg/cm^2, 48 h; for pest or weed control at 0.04 µg/cm2, 0.04 µg/cm2: dose 0.04 μg/cm^2, 48 h
Method in brief: (§1)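 Adult R. sanguineus, I. ricinus, D. variabilis or A. americanum nymphs exposed in glass vials coated with compound from acetone (900 ppm gives 5 μg/cm^2). Held 48 h at room temperature (R. sanguineus) or 21° C., 85% rel. hum.; then heated at 45-50° C. ≤5 min, motionless or uncoordinated ticks scored dead/moribund.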

Ixodes ricinus = assay: In vitro contact test with adult hard ticks (Ixodes ricinus); conditions: read-out: acaricidal activity; for pest or weed control at 5 µg/cm2, 5 µg/cm2: dose 5 μg/cm^2, 48 h; for pest or weed control at 0.2 µg/cm2, 0.2 µg/cm2: dose 0.2 μg/cm^2, 48 h; for pest or weed control at 1 µg/cm2, 1 µg/cm2: dose 1 μg/cm^2, 48 h
Method in brief: as §1

Laodelphax striatellus = assay: Insecticidal testing against small brown planthopper; type: in vivo; conditions: 144 h, concentration 100 ppm, sprayed rice seedlings, after 6 days, read-out: pesticidal rate
Method in brief: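 Acetone solution of compound at a set concentration sprayed onto rice seedlings, air-dried, then exposed to 10 planthoppers (one group). Held at 25° C; survival rate recorded after 6 days.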

Ctenocephalides felis [1] = assay: In vitro contact test with fleas; conditions: read-out: insecticidal activity; for pest or weed control at 0.04 µg/cm2, 0.04 µg/cm2: dose 0.04 μg/cm^2, dead or moribund fleas after 48 h; for pest or weed control at 0.2 µg/cm2, 0.2 µg/cm2: dose 0.2 μg/cm^2, dead or moribund fleas after 48 h; for pest or weed control at 1 µg/cm2, 1 µg/cm2: dose 1 μg/cm^2, dead or moribund fleas after 48 h
Method in brief: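 Adult male and female cat fleas (5-10 per tube) placed in glass tubes coated with compound from acetone solution (900 ppm gives 5 μg/cm^2), kept at room temperature and ambient humidity. After 48 h, motionless or uncoordinated fleas scored dead or moribund; activity expressed as % dead or moribund.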

Dermacentor variabilis = assay: In vitro contact test with adult hard ticks (Dermacentor variabilis); conditions: read-out: acaricidal activity; for pest or weed control at 0.04 µg/cm2, 0.04 µg/cm2: dose 0.04 μg/cm^2, 48 h; for pest or weed control at 0.2 µg/cm2, 0.2 µg/cm2: dose 0.2 μg/cm^2, 48 h; for pest or weed control at 1 µg/cm2, 1 µg/cm2: dose 1 μg/cm^2, 48 h
Method in brief: as §1

Spodoptera litura = assay: Insecticidal testing against common cutworm; type: in vivo; conditions: foliar, 144 h, concentration 100 ppm, cabbage leaf dip, second-stage larvae, after 6 days, read-out: pesticidal rate
Source text: Insecticidal Testing Against Common Cutworm (Spodoptera litura)

Rhipicephalus sanguineus = assay: In vitro contact test with adult hard ticks (Rhipicephalus sanguineus); conditions: read-out: acaricidal activity; for pest or weed control at 0.2 µg/cm2, 0.2 µg/cm2: dose 0.2 μg/cm^2, 48 h; for pest or weed control at 1 µg/cm2, 1 µg/cm2: dose 1 μg/cm^2, 48 h; for pest or weed control at 0.04 µg/cm2, 0.04 µg/cm2: dose 0.04 μg/cm^2, 48 h
Method in brief: as §1

[2] = test system: Rhipicephalus (Boophilus) microplus; assay: In vitro injection test with Rhipicephalus (Boophilus) microplus (BOOPMI Inj); conditions: 168 h, laid fertile eggs after 7 days, read-out: acaricidal activity; for pest or weed control at 6.4 ng: dose 0.0064 μg/animal injected; for pest or weed control at 32 ng: dose 0.032 μg/animal injected; for pest or weed control at 0.00016 mg: dose 0.16 μg/animal injected; for pest or weed control at 0.0008 mg: dose 0.8 μg/animal injected
Method in brief: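 Test substance in DMSO; 1 μl injected into abdomen of each of 5 engorged adult female ticks, then held at 28° C., 85% rel. hum. Activity scored after 7 days from laying of fertile eggs: 100% = no eggs or all infertile, 0% = all eggs fertile.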

Plutella xylostella = assay: Insecticidal testing against diamondback moth; type: in vivo; conditions: foliar, 144 h, concentration 100 ppm, cabbage leaf dip, third-stage larvae, after 6 days, read-out: pesticidal rate
Source text: Insecticidal Testing Against Diamondback Moth (Plutella xylostella)

Ctenocephalides felis [3] = assay: Ctenocephalides felis in-vitro feeding test with fleas (CTECFE oral); conditions: 48 hours, read-out: insecticidal feeding activity; for pest or weed control at 0.16 ppm: dose 0.16 ppm in citrated cattle blood; for pest or weed control at 0.8 ppm: dose 0.8 ppm in citrated cattle blood; for pest or weed control at 4 ppm: dose 4 ppm in citrated cattle blood; for pest or weed control at 0.0064 ppm: dose 0.0064 ppm in citrated cattle blood; for pest or weed control at 0.032 ppm: dose 0.032 ppm in citrated cattle blood
Method in brief: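 About 20 unfed adult cat fleas fed through parafilm on citrated cattle blood containing test substance (DMSO solution diluted in blood), held at about 37° C. Kill rate scored after 48 hours, 100% meaning all fleas dead.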

SMILES | pest or weed control at 0.2 µg/cm2, 0.2 µg/cm2 (Amblyomma americanum) | pest or weed control at 1 µg/cm2, 1 µg/cm2 (Amblyomma americanum) | pest or weed control at 5 µg/cm2, 5 µg/cm2 (Ixodes ricinus) | pest or weed control at 100 ppm (Laodelphax striatellus) | pest or weed control at 0.2 µg/cm2, 0.2 µg/cm2 (Ctenocephalides felis [1]) | pest or weed control at 1 µg/cm2, 1 µg/cm2 (Ctenocephalides felis [1]) | pest or weed control at 0.2 µg/cm2, 0.2 µg/cm2 (Dermacentor variabilis) | pest or weed control at 1 µg/cm2, 1 µg/cm2 (Dermacentor variabilis) | pest or weed control at 100 ppm (Spodoptera litura) | pest or weed control at 0.2 µg/cm2, 0.2 µg/cm2 (Rhipicephalus sanguineus) | pest or weed control at 1 µg/cm2, 1 µg/cm2 (Rhipicephalus sanguineus) | pest or weed control at 32 ng [2] | pest or weed control at 0.00016 mg [2] | pest or weed control at 0.0008 mg [2] | pest or weed control at 100 ppm (Plutella xylostella) | pest or weed control at 0.16 ppm (Ctenocephalides felis [3]) | pest or weed control at 0.8 ppm (Ctenocephalides felis [3]) | pest or weed control at 4 ppm (Ctenocephalides felis [3]) | pest or weed control at 0.2 µg/cm2, 0.2 µg/cm2 (Ixodes ricinus) | pest or weed control at 1 µg/cm2, 1 µg/cm2 (Ixodes ricinus) | further results
CN(C(=O)c1ccc(F)nc1)c1cccc(C(=O)Nc2c(I)cc(C(F)(C(F)(F)F)C(F)(F)C(F)(F)F)cc2C(F)(F)F)c1F (centres unmarked) [Compound 81] | 90% | 90% | 90% | ≥ 70% | 95% | 95% | 90% | 90% | ≥ 70% | 90% | 90% | 100% | 100% | 100% | ≥ 70% | 95% | 95% | 95% |  |  | pest or weed control at 0.04 µg/cm2, 0.04 µg/cm2 (Ctenocephalides felis [1]): 95%; pest or weed control at 0.04 µg/cm2, 0.04 µg/cm2 (Dermacentor variabilis): 90%; pest or weed control at 6.4 ng [2]: 100%
O=C(Nc1cccc(C(=O)Nc2c(I)cc(C(F)(C(F)(F)F)C(F)(F)F)cc2C(F)(F)F)c1F)c1ccc(C(F)F)nc1 [Compound 85] | 90% | 90% | 90% | ≥ 70% | 95% | 95% | 90% | 90% | ≥ 70% | 90% | 90% | 100% | 100% | 100% | ≥ 70% | 95% | 95% | 95% | 90% | 90% | pest or weed control at 0.04 µg/cm2, 0.04 µg/cm2 (Ctenocephalides felis [1]): 95%; pest or weed control at 0.04 µg/cm2, 0.04 µg/cm2 (Dermacentor variabilis): 90%; pest or weed control at 0.0064 ppm (Ctenocephalides felis [3]): 95%; pest or weed control at 0.032 ppm (Ctenocephalides felis [3]): 95%
CN(C(=O)c1ccc(F)cc1)c1cccc(C(=O)Nc2c(Br)cc(C(F)(C(F)(F)F)C(F)(F)F)cc2OC(F)F)c1F [Compound 89] |  | 90% | 90% | ≥ 70% | 95% | 95% | 90% | 90% | ≥ 70% | 90% | 90% | 100% | 100% | 100% | ≥ 70% | 95% | 95% | 95% | 90% | 90% | pest or weed control at 0.04 µg/cm2, 0.04 µg/cm2 (Ctenocephalides felis [1]): 95%; pest or weed control at 6.4 ng [2]: 100%; pest or weed control at 0.032 ppm (Ctenocephalides felis [3]): 95%
O=C(Nc1cccc(C(=O)Nc2c(I)cc(C(F)(C(F)(F)F)C(F)(F)F)cc2OC(F)F)c1F)c1ccc(F)c(F)c1 [Compound 110] | 90% | 90% | 90% | ≥ 70% | 95% | 95% | 90% | 90% | ≥ 70% | 90% | 90% | 100% | 100% | 100% | ≥ 70% | 95% | 95% | 95% | 90% | 90% | pest or weed control at 0.04 µg/cm2, 0.04 µg/cm2 (Amblyomma americanum): 90%; pest or weed control at 0.032 ppm (Ctenocephalides felis [3]): 95%
O=C(Nc1cccc(C(=O)Nc2c(I)cc(C(F)(C(F)(F)F)C(F)(F)F)cc2OC(F)(F)F)c1F)c1ccc(F)c(F)c1 [Compound 97] | 90% | 90% | 90% | ≥ 70% | 95% | 95% | 90% | 90% | ≥ 70% | 90% | 90% |  | 100% | 100% | ≥ 70% | 95% | 95% | 95% | 90% | 90% | pest or weed control at 0.04 µg/cm2, 0.04 µg/cm2 (Ctenocephalides felis [1]): 95%; pest or weed control at 0.04 µg/cm2, 0.04 µg/cm2 (Dermacentor variabilis): 90%
O=C(Nc1cccc(C(=O)Nc2c(Br)cc(C(F)(C(F)(F)F)C(F)(F)F)cc2OC(F)F)c1F)c1ccc(F)cc1 [Compound 91] | 90% | 90% | 90% | ≥ 70% | 95% | 95% | 90% | 90% | ≥ 70% | 90% | 90% | 100% | 100% | 100% | ≥ 70% | 95% | 95% | 95% | 90% | 90% | pest or weed control at 0.04 µg/cm2, 0.04 µg/cm2 (Amblyomma americanum): 90%; pest or weed control at 0.04 µg/cm2, 0.04 µg/cm2 (Ctenocephalides felis [1]): 95%; pest or weed control at 0.04 µg/cm2, 0.04 µg/cm2 (Dermacentor variabilis): 90%; pest or weed control at 0.04 µg/cm2, 0.04 µg/cm2 (Rhipicephalus sanguineus): 90%; pest or weed control at 0.032 ppm (Ctenocephalides felis [3]): 95%
O=C(Nc1cccc(C(=O)Nc2c(I)cc(C(F)(C(F)(F)F)C(F)(F)F)cc2OC(F)F)c1F)c1ccc(C(F)(F)F)nc1 [Compound 108] | 90% | 90% | 90% | ≥ 70% | 95% | 95% | 90% | 90% | ≥ 70% | 90% | 90% | 100% | 100% | 100% | ≥ 70% | 95% | 95% | 95% | 90% | 90% | pest or weed control at 0.04 µg/cm2, 0.04 µg/cm2 (Rhipicephalus sanguineus): 90%; pest or weed control at 0.0064 ppm (Ctenocephalides felis [3]): 95%; pest or weed control at 0.032 ppm (Ctenocephalides felis [3]): 95%
